ChEMBL document CHEMBL1157152, “Kinetic parameters and recognition of thymidine analogues with varying functional groups by thymidine phosphorylase” (Bioorg Med Chem, 2008)

Tests used:
[1] = biological target: Thymidine phosphorylase (Escherichia coli K-12) (UniProt P07650); assay: Activity of Escherichia coli thymidine phosphorylase assessed as drug phosphorylation after 2 hrs; design: concentration or dose not given beside the values
[2] = biological target: Thymidine phosphorylase (Escherichia coli K-12) (UniProt P07650); assay: Activity of Escherichia coli thymidine phosphorylase assessed as drug phosphorylation after 24 hrs
[3] = biological target: Thymidine phosphorylase (Escherichia coli K-12) (UniProt P07650); assay: Activity of Escherichia coli thymidine phosphorylase assessed as drug phosphorylation after 1 hr; design: concentration or dose not given beside the values
[4] = biological target: Thymidine phosphorylase (Escherichia coli K-12) (UniProt P07650); assay: Activity of 10 U/mL Escherichia coli thymidine phosphorylase assessed as drug phosphorylation after 24 hrs
[5] = biological target: Thymidine phosphorylase (Escherichia coli K-12) (UniProt P07650); assay: Activity of 10 U/mL Escherichia coli thymidine phosphorylase assessed as drug phosphorylation after 1 week
[6] = biological target: Thymidine phosphorylase (Escherichia coli K-12) (UniProt P07650); assay: Activity of 1 U/mL Escherichia coli thymidine phosphorylase assessed as drug phosphorylation after 1 hr

Thymidine phosphorylase (Escherichia coli K-12), sequence (P07650 whole entry, looked up): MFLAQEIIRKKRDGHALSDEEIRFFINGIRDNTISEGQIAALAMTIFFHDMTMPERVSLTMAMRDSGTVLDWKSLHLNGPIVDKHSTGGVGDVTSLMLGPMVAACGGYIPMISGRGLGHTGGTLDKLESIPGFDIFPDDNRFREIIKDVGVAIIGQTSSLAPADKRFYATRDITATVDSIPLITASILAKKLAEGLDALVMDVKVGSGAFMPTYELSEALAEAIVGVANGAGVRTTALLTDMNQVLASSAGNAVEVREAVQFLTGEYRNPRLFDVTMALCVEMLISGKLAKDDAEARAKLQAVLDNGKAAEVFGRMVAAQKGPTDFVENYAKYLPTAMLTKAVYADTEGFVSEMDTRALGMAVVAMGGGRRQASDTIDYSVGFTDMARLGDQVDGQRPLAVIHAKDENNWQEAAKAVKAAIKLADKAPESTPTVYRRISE

| Structure (SMILES) | Activity [1] [%] | Activity [3] [%] | Activity [4] [%] | also measured |
| --- | --- | --- | --- | --- |
| O=c1ccn([C@H]2C[C@H](O)[C@@H](CO)O2)c(=O)[nH]1 | 88 |  |  | Activity [2]: 83% |
| Cc1cn([C@H]2C[C@H](O)[C@@H](CS)O2)c(=O)[nH]c1=O | 90 | 39 |  |  |
| Cc1cn([C@H]2CC[C@@H](CO)O2)c(=O)[nH]c1=O | 6.1 | 3.2 |  |  |
| O=c1ccn([C@@H]2O[C@H](CO)[C@@H](O)[C@H]2O)c(=O)[nH]1 | 81 | 56 |  |  |
| Cc1cnc(=O)n([C@H]2C[C@H](O)[C@@H](CO)O2)c1 |  |  | 0 | Activity [5]: 0% |
| Cc1cn([C@H]2C[C@H](O)[C@@H](CN=[N+]=[N-])O2)c(=O)[nH]c1=O | 0 | 0 |  |  |
| Cc1cn([C@H]2C[C@H](O)[C@@H](C)O2)c(=O)[nH]c1=O | 91 | 68 |  |  |
| Cc1cn([C@H]2C[C@H](O)C[C@@H](CO)O2)c(=O)[nH]c1=O |  |  | 0 |  |
| Cc1cn([C@H]2C[C@H](S)[C@@H](CO)O2)c(=O)[nH]c1=O | 0 | 0 |  |  |
| Cc1cn([C@@H]2C[C@H](O)[C@@H](CO)O2)c(=O)[nH]c1=O |  |  | 0 | Activity [5]: 0% |
| Cc1cn([C@H]2C[C@H](O)[C@@H](CI)O2)c(=O)[nH]c1=O | 0 | 0 |  |  |
| Cc1cn([C@H]2C[C@H](O)[C@@H](CN)O2)c(=O)[nH]c1=O | 36 | 11 |  |  |
| Cc1nn([C@H]2C[C@H](O)[C@@H](CO)O2)c(=O)[nH]c1=O |  |  | 5.4 | Activity [5]: 7.9% |
| Cc1cn([C@H]2C[C@H](O)[C@@H](CO)S2)c(=O)[nH]c1=O |  |  | 3.8 |  |
| Cc1cn([C@H]2C[C@H](O)[C@@H](CO)O2)c(=O)[nH]c1=O | 86 | 86 |  | Activity [2]: 82%; Activity [6]: 86% |
| Cc1cn([C@H]2C[C@H](N)[C@@H](CO)O2)c(=O)[nH]c1=O | 1.5 | 0.76 |  |  |
| Cc1cn([C@H]2C[C@H](O)[C@@H](CCl)O2)c(=O)[nH]c1=O | 70 | 24 |  |  |
| Cc1cn(COC(CO)CO)c(=O)[nH]c1=O |  |  | 0 |  |
| Cc1cn([C@@H]2C[C@H](O)[C@@H](CO)S2)c(=O)[nH]c1=O |  |  | 0 |  |
| Nc1ccn([C@H]2C[C@H](O)[C@@H](CO)O2)c(=O)n1 |  |  | 0 | Activity [5]: 0% |
| Cc1cn([C@H]2CC(O)[C@@H](CO)O2)c(=O)[nH]c1=O (single isomer, unassigned) | 0 | 0 |  |  |
